In patent publication EP0273990B1, “Novel organic peroxides and their use in the preparation of epoxide groups containing (co)polymers” (AKZO N.V., priority 1986, dated 1988):

Details: half-life period of decomposition 10 hours; 0,1 M solution in chlorobenzene

Temperature (°C) for t½ of 10 hours: 106 °C
Compound: C=CC(C)(C)OOC(C)(C)c1ccccc1 [peroxide 3, α-(2-methyl-3-buten-2-ylperoxy)isopropylbenzene]
